Experimental findings from patent EP0604983B1, “Naphthalene derivatives” (Mitsubishi Chemical Corporation, priority 1992, dated 1994) are described below.

Marks after values point to notes of the source that are not given here.

For the experiment, the system named is KK-Ay male mice. The experiment is described as follows: Blood sugar and blood triglyceride (TG) lowering test in KK-Ay mice, test compound mixed with powder food. Format: in vivo. The text has this: The effect of the compound of the present invention on reducing blood sugar and blood lipid levels based on the ability of improving insulin resistance has been determined by the following test.
KK-Ay male mice of five to six week age were obtained from Nihon CREA. The mice have been bred with a powder feed (MF powders for breeding rats and mice, Oriental Yeast Co.) from 7 days prior to the test. The mice of nine to eighteen week age having body weights of 35 g or more were used for the test.
The blood sugar values were measured by withdrawing blood (20 µl) from animal's tail vein using a heparin-treated capillary, centrifuging the blood to obtain plasma, and measuring the glucose level in the plasma by the glucose-oxidase method. The triglyceride (TG) levels in plasma were measured by the glycerol enzyme method. Five mice in a group having 200 mg/dl or more of the blood sugar level were used for one test.
The test compounds were mixed with powder food such that the average dosage of the former is 10 - 100 mg/kg/day, and the mixture was administered to the mice for four days. Blood was withdrawn from the animal's tail vein before administration, and five days after administration, and blood sugar and TG levels were measured using the methods mentioned above. The amount of the food ingested was measured every day during the test period, and the average of the amounts for four days was calculated.
The ability of reducing blood sugar level was determined as described below. Namely, the means of the blood sugar values at the time before administration of the test compound in a control group (a group to which the test compound was not administered) and an administration group (a group to which the test compound was administered) (such values are referred to as Mcon and Mad, respectively) and the means of the blood sugar values of the control group and the administration group on 5th day after administration (such values are referred to as Con and Ad, respectively) were determined. The blood sugar lowering effect found in the administration group was expressed by the following formula. Blood sugar lowering effect(%) = 1-(Ad/Mad)/(Con/Mcon)x100 [formula]
The blood TG lowering ratio (%) was measured by the same procedure as that described above. All the values were statistically evaluated under significance level P=0.05.

[1] abbreviates: KK-Ay male mice; mixed with powder food for four days; footnote a): Dose c.a. 100 mg/kg/day, plasma triglyceride (glycerol enzyme method) on 5th day vs control group.
Where [2] appears, read: KK-Ay male mice, mixed with powder food for four days, Dose: c.a. 10 mg/kg/day, plasma triglyceride (glycerol enzyme method) on 5th day vs control group.
Where [3] appears, read: KK-Ay male mice, dose c.a. 30 mg/kg/day (footnote a) mixed with powder food for four days, plasma triglyceride 5th day, vs control group.
The mark [4] stands for this setting: KK-Ay male mice, dose c.a. 50 mg/kg/day mixed with powder food for four days, plasma triglyceride 5th day, vs control group.

As for `Cc1c(C)c2c(c(C)c1O)CCC(C)(COc1ccc(CC3SC(=O)NC3=O)cc1)O2` (stereo not drawn) [CS-045, reference compound], the “TG lowering ratio (%)” value under setting [1] is reported as -18.5%.

Turning to `O=C1NC(=O)C(Cc2ccc3cc(OCc4ccccn4)ccc3c2)S1` (stereo not drawn) [Example 1, 5-[6-(2-pyridylmethyloxy)-2-naphthyl]-methyl-thiazolidine-2,4-dione], the “TG lowering ratio (%)” value under setting [1] worked out at 56.4%.

On to `O=C1NC(=O)C(Cc2ccc3cc(OCc4ccccc4)ccc3c2)S1` (stereo not drawn) [Example 2], for which, under setting [2], the “TG lowering ratio (%)” value is 9.1* %.

Turning to `O=C1NC(=O)C(Cc2ccc3cc(Oc4ccccc4)ccc3c2)S1` (stereo not drawn) [Example 3], under setting [1], the “TG lowering ratio (%)” value was found to be 31.3%.

With `O=C1NC(=O)C(Cc2ccc3cc(OCc4ccccc4F)ccc3c2)S1` (stereo not drawn) [Example 4, 5-[6-(2-fluorobenzyloxy)-2-naphthyl]-methyl-thiazolidine-2,4-dione], the “TG lowering ratio (%)” value under setting [2] is 41.6* %.

Take `O=C1NC(=O)C(Cc2ccc3cc(OCc4ccc(F)cc4)ccc3c2)S1` (stereo not drawn) [Example 6]: the “TG lowering ratio (%)” value under setting [2] is reported as 37.7* %.

With `O=C1NC(=O)C(Cc2ccc3cc(OCc4ccccc4Cl)ccc3c2)S1` (stereo not drawn) [Example 7], the “TG lowering ratio (%)” value under setting [2] worked out at 28.3%.

On to `O=C1NC(=O)C(Cc2ccc3cc(OCc4ccc(Cl)cc4)ccc3c2)S1` (stereo not drawn) [Example 8], for which the “TG lowering ratio (%)” value under setting [2] amounted to 9.4%.

Regarding `O=C1NC(=O)C(Cc2ccc3cc(OCc4ccccc4C(F)(F)F)ccc3c2)S1` (stereo not drawn) [Example 10], the “TG lowering ratio (%)” value under setting [2] was 37.2%.

In the case of `O=C1NC(=O)C(=Cc2ccc3cc(OCc4ccccc4)ccc3c2)S1` [Example 13, 5-(6-benzyloxy-2-naphthyl)-methylene-thiazolidine-2,4-dione], under setting [3], the “TG lowering ratio (%)” value worked out at 21.0%.

`O=C1NC(=O)C(=Cc2ccc3cc(OCc4ccccc4F)ccc3c2)S1` [Example 15, 5-[6-(2-fluorobenzyloxy)-2-naphthyl]-methylene-thiazolidine-2,4-dione]: the “TG lowering ratio (%)” value under setting [3] stood at 38.8%.

`CCc1ccc(CCOc2ccc(CC3SC(=O)NC3=O)cc2)nc1` (stereo not drawn) [Pioglitazone, pioglitazone, reference compound]: under setting [2], the “TG lowering ratio (%)” value is recorded as -4.0%.

For `O=C1NC(=O)C(=Cc2ccc3cc(OCCc4ccccc4)ccc3c2)S1` [compound 14], the “TG lowering ratio (%)” value (KK-Ay male mice, dose c.a. 100 mg/kg/day (footnote b) mixed with powder food for four days, plasma triglyceride 5th day, vs control group) turned out to be 19.9%.

On to `O=C1NC(=O)C(=Cc2ccc3cc(OCc4cccc(F)c4)ccc3c2)S1` [compound 16], for which the “TG lowering ratio (%)” value under setting [3] is 22.3%.

Turning to `O=C1NC(=O)C(=Cc2ccc3cc(OCc4ccc(F)cc4)ccc3c2)S1` [compound 17], the “TG lowering ratio (%)” value under setting [3] was determined as 24.4%.

For the compound `O=C1NC(=O)C(=Cc2ccc3cc(OCc4ccccc4Cl)ccc3c2)S1` [compound 18], under setting [4], the “TG lowering ratio (%)” value is listed as 53.8* %.

For `O=C1NC(=O)C(=Cc2ccc3cc(OCc4ccc(Cl)cc4)ccc3c2)S1` [compound 19], the “TG lowering ratio (%)” value under setting [4] worked out at 21.7%.

In the case of `O=C1NC(=O)C(=Cc2ccc3cc(OCc4ccc(Br)cc4)ccc3c2)S1` [compound 21], the “TG lowering ratio (%)” value under setting [4] was 14.7%.

In the case of `Cc1ccccc1COc1ccc2cc(C=C3SC(=O)NC3=O)ccc2c1` [compound 22], under setting [4], the “TG lowering ratio (%)” value is given as 9.5%.

As for `N#Cc1ccc(COc2ccc3cc(C=C4SC(=O)NC4=O)ccc3c2)cc1` [compound 32], under setting [4], the “TG lowering ratio (%)” value is recorded as 39.6* %.

On to `O=C1NC(=O)C(=Cc2ccc3cc(OCc4ccccc4[N+](=O)[O-])ccc3c2)S1` [compound 33], for which the “TG lowering ratio (%)” value under setting [4] was 16.0%.

In the case of `O=C1NC(=O)C(=Cc2ccc3cc(OCc4ccc([N+](=O)[O-])cc4)ccc3c2)S1` [compound 35], the “TG lowering ratio (%)” value under setting [4] was found to be 56.9%.

For the compound `COC(=O)c1ccc(COc2ccc3cc(C=C4SC(=O)NC4=O)ccc3c2)cc1` [compound 39], under setting [4], the “TG lowering ratio (%)” value turned out to be 16.0%.

On to `O=C1NC(=O)C(=Cc2ccc3cc(OCc4ccccc4C(F)(F)F)ccc3c2)S1` [compound 46], for which the “TG lowering ratio (%)” value under setting [4] was 51.0** %.

`O=C1NC(=O)C(=Cc2ccc3cc(OCc4ccc(C(F)(F)F)cc4)ccc3c2)S1` [compound 48]: under setting [4], the “TG lowering ratio (%)” value came to 25.6%.

Regarding `O=C1NC(=O)C(=Cc2ccc3cc(OCc4c(F)cccc4F)ccc3c2)S1` [compound 49], the “TG lowering ratio (%)” value under setting [3] is reported as 43.4*** %.

Consider `O=C1NC(=O)C(=Cc2ccc3cc(OCc4c(F)cccc4C(F)(F)F)ccc3c2)S1` [compound 50], for which the “TG lowering ratio (%)” value under setting [3] is 27.7** %.
